Source: ChEMBL document CHEMBL1146939, “Design, synthesis, and biological evaluations of novel oxindoles as HIV-1 non-nucleoside reverse transcriptase inhibitors. Part 2” (Bioorg Med Chem Lett, 2006)

Columns and labels:
[1] = tested on: Human immunodeficiency virus 1; assay: Antiviral activity against HIV1 in HEK293T cells; format: functional, organism-based; settings: Human immunodeficiency virus 1, HEK-293T
[2] = tested on: HEK293; assay: Cytotoxicity against HEK293T cells; format: functional; settings: Homo sapiens
[3] = tested on: Human immunodeficiency virus 1; assay: Antiviral activity against HIV1 F227C mutant; format: functional, organism-based
[4] = tested on: Human immunodeficiency virus 1; assay: Antiviral activity against HIV1 K103N mutant; format: functional, organism-based
[5] = tested on: Human immunodeficiency virus 1; assay: Antiviral activity against HIV1 I135V mutant; format: functional, organism-based
[6] = tested on: Human immunodeficiency virus 1; assay: Antiviral activity against HIV1 Y181C mutant; format: functional, organism-based
[7] = tested on: Human immunodeficiency virus 1; assay: Antiviral activity against HIV1 V106A mutant; format: functional, organism-based
[8] = tested on: Human immunodeficiency virus 1; assay: Antiviral activity against HIV1 Y188L mutant; format: functional, organism-based
[9] = tested on: Human immunodeficiency virus 1; assay: Antiviral activity against HIV1 F227L mutant; format: functional, organism-based
[10] = tested on: Human immunodeficiency virus 1; assay: Antiviral activity against HIV1 E138K mutant; format: functional, organism-based
[11] = tested on: Human immunodeficiency virus 1; assay: Antiviral activity against HIV1 V179E mutant; format: functional, organism-based
[12] = tested on: Human immunodeficiency virus 1; assay: Antiviral activity against HIV1 L100I mutant; format: functional, organism-based
[13] = tested on: Human immunodeficiency virus 1; assay: Antiviral activity against HIV1 I135T mutant; format: functional, organism-based

| SMILES | EC50 [1] [nM] | CC50 [2] [nM] | further results |
| --- | --- | --- | --- |
| Cn1cccc1-c1cccc([C@H]2C[C@]23C(=O)Nc2ccc(Cl)cc23)n1 | 557 | > 10000 | – |
| O=C1Nc2ccc(Cl)cc2[C@@]12C[C@@H]2c1cc2ccccc2s1 | 4970 | > 10000 | – |
| CC(=O)/C=C/c1cccc([C@H]2C[C@]23C(=O)Nc2ccc(Cl)cc23)n1 | 1810 | 6130 | – |
| Cc1ccsc1[C@H]1C[C@]12C(=O)Nc1ccc(Cl)cc12 | 844 | > 10000 | – |
| O=C1Nc2ccc(Cl)cc2[C@@]12C[C@@H]2c1ccc(F)cc1 | > 10000 | > 10000 | – |
| O=C1Nc2ccc(Cl)cc2[C@@]12C[C@@H]2c1cccc(-c2ccccn2)n1 | 504 | > 10000 | – |
| Cn1ccnc1[C@H]1C[C@]12C(=O)Nc1ccc(Cl)cc12 | > 10000 | > 10000 | – |
| O=C1Nc2ccc(Cl)cc2[C@@]12C[C@@H]2c1cccnc1 | > 10000 | > 10000 | – |
| O=C1Nc2ccc(Cl)cc2[C@@]12C[C@@H]2c1ccc2ccccc2c1 | > 10000 | > 10000 | – |
| Cn1cccc1[C@H]1C[C@]12C(=O)Nc1ccc(Cl)cc12 | > 10000 | > 10000 | – |
| O=C1Nc2ccc(Cl)cc2[C@@]12C[C@@H]2c1nccs1 | > 10000 | > 10000 | – |
| Cc1cc([C@H]2C[C@]23C(=O)Nc2ccc(Cl)cc23)oc1C | 27 | > 10000 | EC50 [3]: 957 nM; EC50 [4]: > 10000 nM; EC50 [5]: 59 nM; EC50 [6]: 3070 nM; EC50 [7]: 630 nM; EC50 [8]: > 10000 nM; EC50 [9]: 63 nM; EC50 [10]: 52 nM; EC50 [11]: 2460 nM; EC50 [12]: 260 nM; EC50 [13]: 236 nM |
| COc1ccc([C@H]2C[C@]23C(=O)Nc2ccc(Cl)cc23)cc1 | > 10000 | > 10000 | – |
| O=C1Nc2ccc(Cl)cc2[C@@]12C[C@@H]2c1cccc(-c2cccs2)n1 | 16 | > 10000 | EC50 [3]: 313 nM; EC50 [4]: 2240 nM; EC50 [5]: 263 nM; EC50 [6]: 63 nM; EC50 [7]: 147 nM; EC50 [8]: 1970 nM; EC50 [9]: 365 nM; EC50 [10]: 38 nM; EC50 [11]: 60 nM; EC50 [12]: 100 nM; EC50 [13]: 68 nM |
| Cn1nnnc1[C@H]1C[C@]12C(=O)Nc1ccc(Cl)cc12 | > 10000 | > 10000 | – |
| O=C1Nc2ccc(Cl)cc2[C@@](C#CC2CC2)(C(F)(F)F)O1 [EFAVIRENZ] | – | 10000 | EC50 [3]: 8 nM; EC50 [6]: 1.1 nM; EC50 [13]: 1 nM |
| Cc1ccnc2c1NC(=O)c1cccnc1N2C1CC1 [NEVIRAPINE] | – | > 10000 | EC50 [3]: 733 nM; EC50 [6]: > 10000 nM; EC50 [8]: > 10000 nM; EC50 [13]: 207 nM |

More lines, main results first:

| EC50 [1] [nM] | SMILES | CC50 [2] [nM] | further results |
| --- | --- | --- | --- |
| 23 | O=C1Nc2ccc(Cl)cc2[C@@]12C[C@@H]2c1ccc(Br)cn1 | > 10000 | – |
| 463 | COc1c(C)cnc([C@H]2C[C@]23C(=O)Nc2ccc(Cl)cc23)c1C | > 10000 | – |
| 28 | CC1(C)[C@H](c2cccc(Br)n2)[C@@]12C(=O)Nc1ccc(Cl)cc12 | 5240 | – |
| 180 | Cc1cnc([C@H]2C[C@]23C(=O)Nc2ccc(Cl)cc23)c(C)c1[N+](=O)[O-] | > 10000 | – |
| 86 | O=C1Nc2ccc(Cl)cc2[C@@]12C[C@@H]2c1cc2ccccc2o1 | > 10000 | – |
| 39 | Cc1cccc([C@H]2C[C@]23C(=O)Nc2ccc(Cl)cc23)n1 | > 10000 | – |
| 167 | COC(=O)c1cc(OC)cc(OC)c1[C@H]1C[C@]12C(=O)Nc1ccc(Cl)cc12 | > 10000 | – |
| 245 | O=C1Nc2ccc(Cl)cc2[C@@]12C[C@@H]2c1ccc(Br)o1 | > 10000 | – |
| 160 | CCc1ccc([C@H]2C[C@]23C(=O)Nc2ccc(Cl)cc23)s1 | > 10000 | – |
